Laboratory results from patent US20260250636A1, “A METHOD FOR PRODUCING A BIOENGINEERED MAMMAL INDUCED PLURIPOTENT STEM CELL-DERIVED CARDIAC ORGANOID” (INSTITUT NATIONAL DE LA SANTÉ ET DE LA RECHERCHE MÉDICALE, priority 2022, published 2026).

Key:
Assay type in all cases: cell-based, human
c-met cardiac organoids [1] = assay: OCR/ECAR and energy phenotype (Seahorse XFp) under cobalt chloride-mimicked hypoxia
Experimental: Cardiac organoids cultured for 3-4 months in 96 wells were transferred randomly to XFp mini plates (1-6 organoids/well, 300 to 1100 μm in diameter) (Seahorse, Agilent). The cardiac culture medium was treated with 200 μM CoCl2 (sigma) concentration for 24 hours. To evaluate the effects of HGF stimulation and c-met inhibition we have used respectively HGF at 50 ng/ml (R&D Systems) and SU11274 at […] (Sigma) under hypoxia. OCR, ECAR and energy phenotype test were all measured using a Seahorse XFp analyzer (Seahorse, Agilent). On the day of testing, cells were incubated in XF assay medium for 1 hr at 37° C. in non-CO2 incubator before measurement. Cell energy phenotype kit was used with port A containing the FCCP/oligomycin stressor mix at 2.0/1.0 μM (final well concentration). OCR and ECAR were normalized to the cell numbers of each wells. Cells were stained with DAPI and calculated from Leica confocal microscope images.

[2] = test system: control cardiac organoids; assay: Cobalt chloride-mimicked hypoxia, proBNP and caspase-3 immunostaining; settings: 200 μM CoCl2 hypoxia 24 h, n=5, normalized by DAPI fluorescence intensity
Experimental: (§1) Cardiac organoids cultured on 24 or 96-well culture plates were washed with phosphate-buffered saline (PBS), fixed with 4% paraformaldehyde in PBS for 60 min, permeabilized with 0.2% Triton X-100 (Sigma) in PBS and blocked 10% serum. Primary antibodies were diluted in PBS 10% serum at the following concentrations: phospho-Met; 1:100 (Cell Signaling Technologies), phospho-STAT3; 1:200 (Cell Signaling Technologies), Sarcomeric Alpha Actinin; 1:200 (Abcam), MLC-2A; 1:100 (Synaptic Systems), MLC-2V; 1:100 (Synaptic Systems), Cardiac troponin T; 1:100 (Abcam), CD31; 1:100 (Abcam), Caspase-3; 1:100 (Cell Signaling Technologies), ProBNP; 1:100 (Abcam), and then washed three times in PBS. The samples were incubated with secondary antibodies in antibody dilution buffer, then washed in PBS. Nuclei were labeled with DAPI mounting medium. The negative control performed a secondary antibody only (data not shown). Visualization and capture were realized with a Leica confocal microscope and LAS AF software.
(§2) Cardiac organoids cultured for 3-4 months in 96 wells were transferred randomly to XFp mini plates (1-6 organoids/well, 300 to 1100 μm in diameter) (Seahorse, Agilent). The cardiac culture medium was treated with 200 μM CoCl2 (sigma) concentration for 24 hours. To evaluate the effects of HGF stimulation and c-met inhibition we have used respectively HGF at 50 ng/ml (R&D Systems) and SU11274 at 5 M (Sigma) under hypoxia.

c-met cardiac organoids [3] = assay: as above; settings: 200 μM CoCl2 hypoxia 24 h, n=8, normalized by DAPI fluorescence intensity
Experimental: as §1, §2

[4] = test system: control cardiac organoids; assay: OCR/ECAR and energy phenotype (Seahorse XFp) under cobalt chloride-mimicked hypoxia; settings: after CoCl2 hypoxia 24 h; control group as compared to c-met group
Experimental: as §2
OCR, ECAR and energy phenotype test were all measured using a Seahorse XFp analyzer (Seahorse, Agilent). On the day of testing, cells were incubated in XF assay medium for 1 hr at 37° C. in non-CO2 incubator before measurement. Cell energy phenotype kit was used with port A containing the FCCP/oligomycin stressor mix at 2.0/1.0 μM (final well concentration). OCR and ECAR were normalized to the cell numbers of each wells. Cells were stained with DAPI and calculated from Leica confocal microscope images.

Row | Structure (SMILES) | glycolysis activity at the baseline (ECAR) (c-met cardiac organoids [1]; c-met organoids, CoCl2 + SU11274 24 h, compared with HGF-treated (50 ng/ml) control organoids) | energy phenotype (OCR versus ECAR) (c-met cardiac organoids [1]; after CoCl2 hypoxia 24 h, c-met organoids versus control) | caspase-3+ cells intensity [2] | proBNP+ cells intensity [2] | caspase-3+ cells intensity (c-met cardiac organoids [3]) | proBNP+ cells intensity (c-met cardiac organoids [3]) | glycolysis activity (ECAR) [4]
1 | Cc1[nH]c(/C=C2\C(=O)Nc3ccc(S(=O)(=O)N(C)c4cccc(Cl)c4)cc32)c(C)c1C(=O)N1CCN(C)CC1 [SU11274] | significantly decreased | – | – | – | – | – | –
2 | [Cl][Co][Cl] [cobalt, cobalt chloride] | – | more energetic than control | 0.61±0.11 | 0.78±0.16 | 0.34±0.16 | 0.73±1.4 | decreased
